Measured values from patent US20230287234A1, “EDIBLE COATINGS FOR MAINTAINING FRUIT QUALITY” (The State of Israel, Ministry of Agriculture & Rural …, priority 2020, published 2023).
“Also recorded” adds a separate entry of the source.

Experiments:
avocado fruit = experiment: Chilling injury of coated avocados stored at optimal (5° C.) and sub-optimal (2° C.) temperature; assay type: in vivo, 'Ettinger' avocado; details: 21 d at 2° C. or 5° C., followed by one week at 22° C.; index 0-3
Method: Three series of experiments were conducted. In each experiment the coated avocados were compared with uncoated fruits. The first experiment included seven edible coating formulations: carboxymethyl cellulose (CMC) (1% w/v), methylcellulose (MC) (1% w/v), hydroxypropyl methylcellulose (HPMC) (1% w/v), chitosan (1% w/v), alginate (1% w/v), and CMC with stearic acid (CMC+SA) (1% w/v and 0.6% w/v, respectively). The second, and third experiments included five edible coating formulations including phenylalanine, chitosan, CMC+SA, chitosan with phenylalanine, and CMC+SA with phenylalanine. In experiments 1-2 each treatment group included 8 avocados kept in cardboard boxes. In these experiments the fruit were stored for 14 and 12 days respectively at 20° C. (shelf-life conditions). In experiment 3 each treatment group included 14 avocados kept in cardboard boxes. The formulations of the edible coatings were applied to the fruit using paintbrushes. […] Internal browning: Internal browning was determined by cutting each fruit for half, lengthwise, at the end of each experiment, and assessing the visual appearance of the fruit Internal browning. Internal browning was evaluated on a 0-3 scale, in which 0=no internal browning and 3=sever internal browning. […] Blackening and pitting of the skin surface, as well as internal browning, were assessed to measure chilling injury. […]

[1] = system: stem-end rot and side rot of avocado fruit; experiment: Effect of coatings with and without Phe on avocado decay (stem-end rot, side rot, total decay incidence); assay type: in vivo, 'Fuerte' avocado; details: avocado stored 12 d at 22° C.
Method: Three series of experiments were conducted. In each experiment the coated avocados were compared with uncoated fruits. The first experiment included seven edible coating formulations: carboxymethyl cellulose (CMC) (1% w/v), methylcellulose (MC) (1% w/v), hydroxypropyl methylcellulose (HPMC) (1% w/v), chitosan (1% w/v), alginate (1% w/v), and CMC with stearic acid (CMC+SA) (1% w/v and 0.6% w/v, respectively). The second, and third experiments included five edible coating formulations including phenylalanine, chitosan, CMC+SA, chitosan with phenylalanine, and CMC+SA with phenylalanine. In experiments 1-2 each treatment group included 8 avocados kept in cardboard boxes. In these experiments the fruit were stored for 14 and 12 days respectively at 20° C. (shelf-life conditions). In experiment 3 each treatment group included 14 avocados kept in cardboard boxes. […] Determination of decay incidences: Stem end rot (SER) was determined at the end of each experiment by assessing the visual appearance of the fruit stem end. SER was evaluated on a 0-3 scale, in which zero=no SER and three=severe SER. […] Side rot (Alternaria rot and anthracnose) was evaluated at the end of each experiment on a 0-3 scale, in which zero=no side rot and three=severe rot. […] Total decay incidences were determined by calculating the percentage of decayed fruit at the end of each experiment per treatment. […]

Q: Which chilling injuries symptoms (avocado fruit) does the source give for `N[C@@H](Cc1ccccc1)C(=O)O` [Phe, phenylalanine] here?
A: The chilling injuries symptoms was “reduced the appearance of chilling injuries”.

Q: What about the “decay incidence and severity (stem-end rot and side rot)” value [1] of the same molecule?
A: Its value is “some effect on reducing fruit decay incidence and severity; also recorded: increased its resistance to postharvest decay”.

Q: And the “decay incidence and severity (stem-end rot and side rot)” value ([1]; listed as Phenylalanine)?
A: The value was “did not show clear protection effects”.
